Where “and” joins values, the source holds several entries; their conditions need not be identical. Equal values may be shown once. Inconclusive results and toxic doses are left out.
Tested on: P388 leukemia ip, CD2F1 mice, survival T/C
Test: NCI In Vivo Anticancer Drug Screen. Data for tumor model P388 Leukemia (intraperitoneal) in CD2F1 (CDF1) mice
Conditions: endpoint: median survival time, higher = longer survival
How it was run: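 Mice carrying the transplanted tumor received test compound or vehicle. Survival was recorded in each group, and the value is the treated-group measurement divided by that of the vehicle-treated control group.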

[1] = dose: 50.0 mg/kg/injection, schedule: Q01DX005 (ip), vehicle: saline
[2] = dose: 25.0 mg/kg/injection, schedule: Q01DX009 (ip), vehicle: saline with Tween-80
[3] = dose: 50.0 mg/kg/injection, schedule: Q01DX009 (ip), vehicle: saline with Tween-80
[4] = dose: 200.0 mg/kg/injection, schedule: Q01DX009 (ip), vehicle: saline with Tween-80
[5] = dose: 100.0 mg/kg/injection, schedule: Q01DX009 (ip), vehicle: saline with Tween-80

`CCOC(=O)Nc1nncs1` was tested. Which T/C (dose: 12.5 mg/kg/injection, schedule: Q01DX009 (ip), vehicle: distilled water + Tween-80) did it give?
The T/C was 103 % of control.

And the T/C (dose: 25.0 mg/kg/injection, schedule: Q01DX009 (ip), vehicle: distilled water + Tween-80)?
Its T/C is 105 % of control and 108 % of control.

What about the T/C (dose: 50.0 mg/kg/injection, schedule: Q01DX009 (ip), vehicle: distilled water + Tween-80) of the same compound?
The T/C was 108 % of control.

And the T/C (dose: 100.0 mg/kg/injection, schedule: Q01DX009 (ip), vehicle: distilled water + Tween-80)?
Its T/C is 100 % of control.

What about the T/C (dose: 200.0 mg/kg/injection, schedule: Q01DX009 (ip), vehicle: distilled water + Tween-80) of the same compound?
Its T/C is 151 % of control and 168 % of control.

What about the T/C (dose: 400.0 mg/kg/injection, schedule: Q01DX009 (ip), vehicle: distilled water + Tween-80) of the same compound?
The T/C was 108 % of control.

Which T/C (dose: 50.0 mg/kg/injection, schedule: Q01DX005 (ip), vehicle: Klucel (hydroxypropylcellulose) (HPC)) does the source give for `CCC1(C)C(=O)SC(=S)N1C` (stereo not given) here?
Its T/C is 101 % of control.

What about the T/C (dose: 100.0 mg/kg/injection, schedule: Q01DX005 (ip), vehicle: Klucel (hydroxypropylcellulose) (HPC)) of the same compound?
The T/C was 97 % of control.

And the T/C (dose: 200.0 mg/kg/injection, schedule: Q01DX005 (ip), vehicle: Klucel (hydroxypropylcellulose) (HPC))?
The T/C was 103 % of control.

Which results are given for `c1ccc(C2(N3CCOCC3)CSC2)cc1`?
T/C (dose: 100.0 mg/kg/injection, schedule: Q04DX002 (ip), vehicle: saline with Tween-80): 95 % of control; T/C (dose: 200.0 mg/kg/injection, schedule: Q04DX002 (ip), vehicle: saline with Tween-80): 98 % of control; T/C (dose: 400.0 mg/kg/injection, schedule: Q04DX002 (ip), vehicle: saline with Tween-80): 98 % of control

Which T/C (dose: 12.5 mg/kg/injection, schedule: Q01DX005 (ip), vehicle: saline) does the source give for `COc1cc(NCC(C)(O)CN2CCCCC2)c2ncccc2c1` (stereo not given) here?
Its T/C is 94 % of control.

What about the T/C (dose: 25.0 mg/kg/injection, schedule: Q01DX005 (ip), vehicle: saline) of the same compound?
Its T/C is 98 % of control.

And the T/C [1]?
Its T/C is 93 % of control and 97 % of control.

What does the source list for `CC(=O)c1cc(I)c(O)c2ncccc12`?
T/C (dose: 6.25 mg/kg/injection, schedule: Q01DX009 (ip), vehicle: saline with Tween-80): 97 % of control; T/C (dose: 12.5 mg/kg/injection, schedule: Q01DX009 (ip), vehicle: saline with Tween-80): 94 % of control; T/C [2]: 98 % of control

How did the T/C (dose: 1.5 mg/kg/injection, schedule: Q01DX005 (ip), vehicle: saline with Tween-80) turn out when `COc1ccc(CC2c3cc(OC)c(OC)cc3CCN2C)cc1OC` (stereo not given) was run?
The T/C was 97 % of control.

What about the T/C (dose: 3.0 mg/kg/injection, schedule: Q01DX005 (ip), vehicle: saline with Tween-80) of the same compound?
The T/C was 98 % of control.

And the T/C (dose: 6.0 mg/kg/injection, schedule: Q01DX005 (ip), vehicle: saline with Tween-80)?
Its T/C is 99 % of control.

What about the T/C [3] of the same compound?
Its T/C is 91 % of control.

With `c1ccc(C23CC4CCCCC4CC2O3)cc1` (stereo not given) as the compound, how does the T/C (dose: 100.0 mg/kg/injection, schedule: Q04DX002 (ip), vehicle: Klucel (hydroxypropylcellulose) (HPC)) read?
Its T/C is 98 % of control.

What about the T/C (dose: 200.0 mg/kg/injection, schedule: Q04DX002 (ip), vehicle: Klucel (hydroxypropylcellulose) (HPC)) of the same compound?
The T/C was 111 % of control.

And the T/C (dose: 400.0 mg/kg/injection, schedule: Q04DX002 (ip), vehicle: Klucel (hydroxypropylcellulose) (HPC))?
The T/C was 104 % of control.

With `CC(CCC1(O)OC2CC3C4CC=C5CC(OC6OC(CO)C(OC7OC(C)C(O)C(O)C7O)C(O)C6O)CCC5(C)C4CCC3(C)C2C1(C)C)COC1OC(C)C(O)C(O)C1O` (stereo not given) as the compound, how does the T/C (dose: 2.5 mg/kg/injection, schedule: Q01DX005 (ip), vehicle: Klucel (hydroxypropylcellulose) (HPC)) read?
Its T/C is 100 % of control.

What about the T/C (dose: 5.0 mg/kg/injection, schedule: Q01DX005 (ip), vehicle: Klucel (hydroxypropylcellulose) (HPC)) of the same compound?
The T/C was 88 % of control.

For `CCCCCCCCCCCCCCCC(=O)NCC(=O)NC1CC(OC2CC(O)(C(C)=O)Cc3c(O)c4c(c(O)c32)C(=O)c2c(OC)cccc2C4=O)OC(C)C1O` (stereo not given), which T/C (dose: 0.75 mg/kg/injection, schedule: Q01DX009 (ip), vehicle: other) is on record?
Its T/C is 100 % of control.

What about the T/C (dose: 1.5 mg/kg/injection, schedule: Q01DX009 (ip), vehicle: other) of the same compound?
Its T/C is 103 % of control.

And the T/C (dose: 3.0 mg/kg/injection, schedule: Q01DX009 (ip), vehicle: other)?
Its T/C is 118 % of control.

What does the source list for `CC(=O)OC(C(=O)OC1C[C@]2(O)C(OC(=O)c3ccccc3)C3[C@@]4(OC(C)=O)CO[C@H]4C[C@@H](OC(C)=O)[C@]3(C)C(=O)[C@@H](OC(C)=O)C(=C1C)C2(C)C)C(NC(=O)c1ccccc1)c1ccccc1` (stereo not given in full)?
T/C (dose: 5.0 mg/kg/injection, schedule: Q01DX009 (ip), vehicle: Klucel (hydroxypropylcellulose) (HPC)): 99 % of control; T/C (dose: 10.0 mg/kg/injection, schedule: Q01DX009 (ip), vehicle: Klucel (hydroxypropylcellulose) (HPC)): 105 % of control; T/C (dose: 20.0 mg/kg/injection, schedule: Q01DX009 (ip), vehicle: Klucel (hydroxypropylcellulose) (HPC)): 100 % of control; T/C (dose: 40.0 mg/kg/injection, schedule: Q01DX009 (ip), vehicle: Klucel (hydroxypropylcellulose) (HPC)): 104 % of control

How did the T/C (dose: 50.0 mg/kg/injection, schedule: Q01DX009 (ip), vehicle: olive oil, sesame oil, peanut oil) turn out when `O=S(=O)(OC1=CCCCCC1)C(F)(F)F` was run?
The T/C was 106 % of control.

And the T/C (dose: 100.0 mg/kg/injection, schedule: Q01DX009 (ip), vehicle: olive oil, sesame oil, peanut oil)?
Its T/C is 91 % of control.

What about the T/C (dose: 200.0 mg/kg/injection, schedule: Q01DX009 (ip), vehicle: olive oil, sesame oil, peanut oil) of the same compound?
Its T/C is 114 % of control.

How did the T/C (dose: 12.5 mg/kg/injection, schedule: Q01DX001 (ip), vehicle: Klucel (hydroxypropylcellulose) (HPC)) turn out when `COC(=O)C/C(C(=O)OC)=C1\CCCC2=C1N1CCCC1C2(CC(=O)OC)C(=O)OC` (stereo not given) was run?
The T/C was 97 % of control.

What about the T/C (dose: 25.0 mg/kg/injection, schedule: Q01DX001 (ip), vehicle: Klucel (hydroxypropylcellulose) (HPC)) of the same compound?
The T/C was 98 % of control.

And the T/C (dose: 50.0 mg/kg/injection, schedule: Q01DX001 (ip), vehicle: Klucel (hydroxypropylcellulose) (HPC))?
Its T/C is 100 % of control.

With `O=CC(O)C(O)C(O)C(O)C(O)C#CC#CC(O)C(O)C(O)C(O)C(O)C=O` (stereo not given) as the compound, how does the T/C [1] read?
The T/C was 100 % of control.

What about the T/C (dose: 100.0 mg/kg/injection, schedule: Q01DX005 (ip), vehicle: saline) of the same compound?
Its T/C is 105 % of control.

What about the T/C (dose: 200.0 mg/kg/injection, schedule: Q01DX005 (ip), vehicle: saline) of the same compound?
The T/C was 92 % of control.

For `CC(=O)[C-](Cl)C(C)=O.CC(=O)[C-](Cl)C(C)=O.CC(=O)[C-](Cl)C(C)=O.[Ru+3]`, which T/C (dose: 60.0 mg/kg/injection, schedule: Q01DX005 (ip), vehicle: saline with Tween-80) is on record?
Its T/C is 111 % of control.

What about the T/C (dose: 120.0 mg/kg/injection, schedule: Q01DX005 (ip), vehicle: saline with Tween-80) of the same compound?
The T/C was 109 % of control.

And the T/C (dose: 240.0 mg/kg/injection, schedule: Q01DX005 (ip), vehicle: saline with Tween-80)?
The T/C was 98 % of control.

How did the T/C (dose: 100.0 mg/kg/injection, schedule: Q04DX003 (ip), vehicle: Klucel (hydroxypropylcellulose) (HPC)) turn out when `O=C(O)c1ccccc1C(=O)OCc1ccccc1` was run?
The T/C was 100 % of control.

And the T/C (dose: 200.0 mg/kg/injection, schedule: Q04DX003 (ip), vehicle: Klucel (hydroxypropylcellulose) (HPC))?
Its T/C is 100 % of control.

And the T/C (dose: 400.0 mg/kg/injection, schedule: Q04DX003 (ip), vehicle: Klucel (hydroxypropylcellulose) (HPC))?
Its T/C is 97 % of control.

Which T/C (dose: 6.25 mg/kg/injection, schedule: Q01DX009 (ip), vehicle: saline) does the source give for `CC1CN(C(=O)Nc2ccc(Cl)c(Cl)c2)CC(C)O1` (stereo not given) here?
The T/C was 100 % of control.

And the T/C (dose: 12.5 mg/kg/injection, schedule: Q01DX009 (ip), vehicle: saline)?
The T/C was 98 % of control.

What about the T/C (dose: 25.0 mg/kg/injection, schedule: Q01DX009 (ip), vehicle: saline) of the same compound?
The T/C was 86 % of control.

And the T/C [4]?
The T/C was 100 % of control.

How did the T/C (dose: 12.5 mg/kg/injection, schedule: Q01DX009 (ip), vehicle: other) turn out when `Cc1cc(NCCCCNCCCNc2cc(C)nc3cc([N+](=O)[O-])ccc23)c2ccc([N+](=O)[O-])cc2n1` was run?
Its T/C is 150 % of control.

Which T/C [2] does the source give for `CNC(=O)c1ccccc1` here?
Its T/C is 98 % of control.

What about the T/C [3] of the same compound?
Its T/C is 100 % of control.

And the T/C [5]?
The T/C was 100 % of control.

What about the T/C [4] of the same compound?
The T/C was 100 % of control.

How did the T/C (dose: 50.0 mg/kg/injection, schedule: Q01DX001 (ip), vehicle: saline with Tween-80) turn out when `Cc1ccc(S(=O)(=O)OC2C(O)CC(=O)C(OC(=O)c3ccccc3)C2OC(=O)c2ccccc2)cc1` (stereo not given) was run?
The T/C was 90 % of control.

And the T/C (dose: 100.0 mg/kg/injection, schedule: Q01DX001 (ip), vehicle: saline with Tween-80)?
The T/C was 89 % of control.

And the T/C (dose: 400.0 mg/kg/injection, schedule: Q01DX001 (ip), vehicle: saline with Tween-80)?
Its T/C is 100 % of control.

Which results are given for `Cc1ccc(S(=O)(O)=S)cc1`?
T/C (dose: 50.0 mg/kg/injection, schedule: Q01DX009 (ip), vehicle: saline): 101 % of control; T/C (dose: 100.0 mg/kg/injection, schedule: Q01DX009 (ip), vehicle: saline): 107 % of control; T/C (dose: 100.0 mg/kg/injection, schedule: Q04DX002 (ip), vehicle: saline): 105 % of control; T/C (dose: 200.0 mg/kg/injection, schedule: Q01DX009 (ip), vehicle: saline): 115 % of control; T/C (dose: 200.0 mg/kg/injection, schedule: Q04DX002 (ip), vehicle: saline): 101 % of control; T/C (dose: 400.0 mg/kg/injection, schedule: Q04DX002 (ip), vehicle: saline): 102 % of control

What does the source list for `CN(c1ccccc1)C1C=C(c2ccccc2)OC(=O)C1(Cl)Cl` (stereo not given)?
T/C [3]: 92 % of control; T/C [5]: 95 % of control; T/C [4]: 98 % of control
